Source: ChEMBL document CHEMBL5241117, “Current leishmaniasis drug discovery” (RSC Med Chem, 2022)

Columns and labels:
Leishmania donovani [1] = test: Antileishmanial activity against Leishmania donovani; type: functional, organism-based
[2] = Cytotoxicity against human THP-1 cells; type: toxicity, cell-based
Leishmania donovani [3] = test: Antileishmanial activity against Leishmania donovani infected in mouse model of visceral leishmaniasis assessed as reduction in parasite load at 25 mg/kg, po administered for 10 days; type: functional; set-up: scale not given: the % may be the effect or the level left; settings: time 10 day
Leishmania donovani [4] = test: Antileishmanial activity against Leishmania donovani infected in mouse model of visceral leishmaniasis assessed as reduction in parasite load; type: functional; set-up: scale not given: the % may be the effect or the level left

EC50 (Leishmania donovani [1]) [nM]	Compound	EC50 [2] [nM]	Activity (Leishmania donovani [3]) [%]	Activity (Leishmania donovani [4]) [%]
1400	C[C@H]1CN(c2n[nH]c3nc(N[C@H]4CC[C@H](NS(=O)(=O)CCC(F)(F)F)CC4)ncc23)CCO1 [GSK-3186899]	> 50000	99	
	O=C(Nc1ccc(F)c(-c2ccn3c(N4CCOCC4)cnc3n2)c1)N1CCCC1 [GSK-3494245]			95
900	CCCCCCCCCCCCCCCCOP(=O)([O-])OCC[N+](C)(C)C [MILTEFOSINE]			

Compound	EC50 (Leishmania donovani [1]) [nM]	EC50 [2] [nM]	Activity (Leishmania donovani [3]) [%]	Activity (Leishmania donovani [4]) [%]
NC[C@@H]1O[C@H](O[C@H]2[C@@H](O)[C@H](O[C@@H]3[C@@H](O)[C@H](N)C[C@H](N)[C@H]3O[C@H]3O[C@H](CO)[C@@H](O)[C@H](O)[C@H]3N)O[C@@H]2CO)[C@H](N)[C@@H](O)[C@@H]1O [PAROMOMYCIN]	6600			
